What was measured:
[1] = target: Hydroxycarboxylic acid receptor 2 (Homo sapiens, UniProt Q8TDS4)
[2] = target: Sodium channel protein type 5 subunit alpha (Homo sapiens, UniProt Q14524); assay type: functional, cell-based
D(1A) dopamine receptor [3] = target: T1, D(1A) dopamine receptor (Homo sapiens, UniProt P21728)
Histamine H1 receptor = Histamine H1 receptor (Homo sapiens, UniProt P35367); assay type: functional, cell-based
[4] = target: 3',5'-cyclic-AMP phosphodiesterase 4A (Homo sapiens, UniProt P27815); assay type: functional
[5] = target: Voltage-dependent L-type calcium channel subunit alpha-1C (Homo sapiens, UniProt Q13936); assay type: functional, cell-based
[6] = target: T2, Peroxisome proliferator-activated receptor gamma (Homo sapiens, UniProt P37231); assay type: functional
T2 sequence (P37231 whole entry): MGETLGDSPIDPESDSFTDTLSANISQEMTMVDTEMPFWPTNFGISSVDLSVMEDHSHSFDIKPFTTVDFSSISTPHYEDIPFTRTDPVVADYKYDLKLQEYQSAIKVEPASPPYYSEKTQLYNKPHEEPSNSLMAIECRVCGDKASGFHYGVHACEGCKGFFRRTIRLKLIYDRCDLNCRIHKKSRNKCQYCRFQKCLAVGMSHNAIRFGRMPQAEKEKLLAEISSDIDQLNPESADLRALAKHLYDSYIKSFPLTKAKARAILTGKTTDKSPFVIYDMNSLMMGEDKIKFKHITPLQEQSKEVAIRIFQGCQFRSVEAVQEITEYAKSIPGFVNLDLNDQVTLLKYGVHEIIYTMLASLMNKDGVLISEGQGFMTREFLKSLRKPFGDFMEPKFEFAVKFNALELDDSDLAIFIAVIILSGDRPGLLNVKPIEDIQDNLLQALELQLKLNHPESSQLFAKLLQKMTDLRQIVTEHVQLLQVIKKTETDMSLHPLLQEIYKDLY

[7] = target: Prostaglandin G/H synthase 1 (Homo sapiens, UniProt P23219); assay type: functional
D(3) dopamine receptor = D(3) dopamine receptor (Homo sapiens, UniProt P35462)
[8] = target: Gamma-aminobutyric acid receptor subunit alpha-1/alpha-2/beta-2/gamma-2 (Homo sapiens, UniProt P14867+P18507+P47869+P47870); assay type: functional, cell-based
Chain of Gamma-aminobutyric acid receptor subunit alpha-1/alpha-2/beta-2/gamma-2 (P14867 whole entry): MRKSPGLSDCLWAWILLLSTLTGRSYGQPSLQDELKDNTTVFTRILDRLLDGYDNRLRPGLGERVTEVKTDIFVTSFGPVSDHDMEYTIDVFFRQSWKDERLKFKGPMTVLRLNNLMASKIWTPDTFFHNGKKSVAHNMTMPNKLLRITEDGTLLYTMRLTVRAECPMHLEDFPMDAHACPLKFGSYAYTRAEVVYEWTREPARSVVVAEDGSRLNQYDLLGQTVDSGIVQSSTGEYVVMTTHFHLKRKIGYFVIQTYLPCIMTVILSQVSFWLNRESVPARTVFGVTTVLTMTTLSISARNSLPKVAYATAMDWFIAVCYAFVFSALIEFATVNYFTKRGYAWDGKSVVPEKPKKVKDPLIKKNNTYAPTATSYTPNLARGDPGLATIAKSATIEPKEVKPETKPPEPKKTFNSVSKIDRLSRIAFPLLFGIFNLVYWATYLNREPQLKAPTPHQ
Chain of Gamma-aminobutyric acid receptor subunit alpha-1/alpha-2/beta-2/gamma-2 (P47870 whole entry): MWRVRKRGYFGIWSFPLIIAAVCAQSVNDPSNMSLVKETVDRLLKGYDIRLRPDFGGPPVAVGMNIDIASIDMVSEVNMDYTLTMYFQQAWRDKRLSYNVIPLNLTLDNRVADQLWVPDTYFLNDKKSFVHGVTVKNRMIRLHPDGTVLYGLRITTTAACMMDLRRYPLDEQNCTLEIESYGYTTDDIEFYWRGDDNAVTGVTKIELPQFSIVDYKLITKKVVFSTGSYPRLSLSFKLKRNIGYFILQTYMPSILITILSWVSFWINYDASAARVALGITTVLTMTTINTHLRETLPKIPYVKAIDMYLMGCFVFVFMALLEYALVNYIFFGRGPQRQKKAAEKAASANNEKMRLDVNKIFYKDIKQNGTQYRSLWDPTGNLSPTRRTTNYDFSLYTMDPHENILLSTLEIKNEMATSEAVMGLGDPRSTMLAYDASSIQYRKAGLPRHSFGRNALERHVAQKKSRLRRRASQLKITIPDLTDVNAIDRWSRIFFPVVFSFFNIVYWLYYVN
Chain of Gamma-aminobutyric acid receptor subunit alpha-1/alpha-2/beta-2/gamma-2 (P18507 whole entry): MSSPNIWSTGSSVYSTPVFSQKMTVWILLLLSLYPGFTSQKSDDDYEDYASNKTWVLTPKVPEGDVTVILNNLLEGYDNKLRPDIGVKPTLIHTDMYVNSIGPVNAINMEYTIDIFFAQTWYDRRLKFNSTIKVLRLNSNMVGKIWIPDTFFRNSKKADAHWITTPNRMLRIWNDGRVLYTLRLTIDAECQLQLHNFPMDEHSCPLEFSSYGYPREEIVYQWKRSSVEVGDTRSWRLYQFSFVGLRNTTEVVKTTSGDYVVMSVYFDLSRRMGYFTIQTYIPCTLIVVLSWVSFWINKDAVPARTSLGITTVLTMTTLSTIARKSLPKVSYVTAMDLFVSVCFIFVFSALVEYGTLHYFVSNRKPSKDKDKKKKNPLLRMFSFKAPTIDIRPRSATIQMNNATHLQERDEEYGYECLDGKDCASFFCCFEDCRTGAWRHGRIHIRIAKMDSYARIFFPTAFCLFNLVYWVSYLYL
Chain of Gamma-aminobutyric acid receptor subunit alpha-1/alpha-2/beta-2/gamma-2 (P47869 whole entry): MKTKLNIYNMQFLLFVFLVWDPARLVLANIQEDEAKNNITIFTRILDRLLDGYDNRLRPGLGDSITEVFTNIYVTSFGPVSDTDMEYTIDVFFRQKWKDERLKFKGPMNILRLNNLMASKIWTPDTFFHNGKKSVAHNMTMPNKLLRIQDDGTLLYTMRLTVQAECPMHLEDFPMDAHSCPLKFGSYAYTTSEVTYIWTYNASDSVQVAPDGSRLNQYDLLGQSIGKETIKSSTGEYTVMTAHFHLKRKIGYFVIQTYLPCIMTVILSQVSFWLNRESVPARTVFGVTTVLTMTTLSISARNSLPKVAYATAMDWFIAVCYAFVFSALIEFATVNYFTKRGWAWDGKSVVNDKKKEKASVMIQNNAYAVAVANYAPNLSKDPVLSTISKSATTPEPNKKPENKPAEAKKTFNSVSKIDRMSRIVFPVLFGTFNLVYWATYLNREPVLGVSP

Histamine H3 receptor = Histamine H3 receptor (Homo sapiens, UniProt Q9Y5N1)
[9] = target: T2, Peroxisome proliferator-activated receptor gamma; assay type: functional; remark: listed apart in the source
[10] = target: T3, Muscarinic acetylcholine receptor M5 (Homo sapiens, UniProt P08912)
T3 sequence (P08912 whole entry): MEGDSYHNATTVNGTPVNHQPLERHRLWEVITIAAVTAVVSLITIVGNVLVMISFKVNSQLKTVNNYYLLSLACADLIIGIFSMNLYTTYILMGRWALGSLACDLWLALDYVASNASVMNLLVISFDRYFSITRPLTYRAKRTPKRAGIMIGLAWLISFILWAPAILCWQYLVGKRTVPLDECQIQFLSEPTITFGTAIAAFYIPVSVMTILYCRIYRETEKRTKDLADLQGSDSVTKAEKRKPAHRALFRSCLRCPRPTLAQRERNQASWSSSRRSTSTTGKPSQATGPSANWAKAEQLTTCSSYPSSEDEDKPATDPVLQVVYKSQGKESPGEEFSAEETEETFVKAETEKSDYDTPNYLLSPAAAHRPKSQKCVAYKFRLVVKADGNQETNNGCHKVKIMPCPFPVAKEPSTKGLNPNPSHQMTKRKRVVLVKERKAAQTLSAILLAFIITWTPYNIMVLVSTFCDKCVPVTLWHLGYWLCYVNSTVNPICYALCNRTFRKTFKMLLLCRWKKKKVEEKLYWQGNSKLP

[11] = target: Rod cGMP-specific 3',5'-cyclic phosphodiesterase subunit alpha (Homo sapiens, UniProt P16499); assay type: functional
D(1B) dopamine receptor = D(1B) dopamine receptor (Homo sapiens, UniProt P21918)
[12] = target: T4, Muscarinic acetylcholine receptor M4 (Homo sapiens, UniProt P08173)
T4 sequence (P08173 whole entry): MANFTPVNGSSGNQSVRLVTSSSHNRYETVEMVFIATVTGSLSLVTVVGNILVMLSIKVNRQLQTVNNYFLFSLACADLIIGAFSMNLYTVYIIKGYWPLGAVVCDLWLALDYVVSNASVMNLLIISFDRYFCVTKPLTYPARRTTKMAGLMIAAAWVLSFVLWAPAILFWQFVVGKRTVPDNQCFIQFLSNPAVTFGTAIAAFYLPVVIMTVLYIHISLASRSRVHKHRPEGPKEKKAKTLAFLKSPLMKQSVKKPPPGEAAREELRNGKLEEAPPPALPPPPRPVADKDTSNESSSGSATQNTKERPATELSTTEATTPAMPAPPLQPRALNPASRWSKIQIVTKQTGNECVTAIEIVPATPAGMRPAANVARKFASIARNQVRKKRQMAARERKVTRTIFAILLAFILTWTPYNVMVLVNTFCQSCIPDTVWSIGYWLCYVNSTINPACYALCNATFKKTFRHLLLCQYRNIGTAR

[13] = target: 5-hydroxytryptamine receptor 5A (Homo sapiens, UniProt P47898)
Substance-K receptor = target: T5, Substance-K receptor (Homo sapiens, UniProt P21452)
T5 sequence (P21452 whole entry): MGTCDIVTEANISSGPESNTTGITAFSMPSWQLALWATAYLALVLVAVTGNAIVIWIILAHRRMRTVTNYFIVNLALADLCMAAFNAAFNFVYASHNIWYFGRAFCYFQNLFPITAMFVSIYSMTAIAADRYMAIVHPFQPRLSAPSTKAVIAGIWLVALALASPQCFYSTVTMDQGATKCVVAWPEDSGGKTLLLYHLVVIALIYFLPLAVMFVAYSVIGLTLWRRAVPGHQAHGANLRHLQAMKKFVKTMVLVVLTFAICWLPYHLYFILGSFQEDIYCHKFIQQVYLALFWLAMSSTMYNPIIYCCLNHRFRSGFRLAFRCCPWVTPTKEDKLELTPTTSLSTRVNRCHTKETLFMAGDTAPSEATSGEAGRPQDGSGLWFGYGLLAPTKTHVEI

D(1A) dopamine receptor [14] = target: T1, D(1A) dopamine receptor; assay type: functional, cell-based
Also: assay procedure not described here.

Chain of Hydroxycarboxylic acid receptor 2 (Q8TDS4 whole entry): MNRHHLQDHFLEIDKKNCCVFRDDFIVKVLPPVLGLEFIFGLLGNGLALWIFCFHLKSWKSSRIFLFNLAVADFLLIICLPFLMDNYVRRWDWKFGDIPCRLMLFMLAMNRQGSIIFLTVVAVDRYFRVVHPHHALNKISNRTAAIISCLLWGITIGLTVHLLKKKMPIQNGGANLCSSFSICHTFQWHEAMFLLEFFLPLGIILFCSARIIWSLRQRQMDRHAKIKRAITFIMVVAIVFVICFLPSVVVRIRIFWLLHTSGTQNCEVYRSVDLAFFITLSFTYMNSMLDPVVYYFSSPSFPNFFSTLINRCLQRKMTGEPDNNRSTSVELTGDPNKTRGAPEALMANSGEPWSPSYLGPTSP
Chain of Sodium channel protein type 5 subunit alpha (Q14524 whole entry): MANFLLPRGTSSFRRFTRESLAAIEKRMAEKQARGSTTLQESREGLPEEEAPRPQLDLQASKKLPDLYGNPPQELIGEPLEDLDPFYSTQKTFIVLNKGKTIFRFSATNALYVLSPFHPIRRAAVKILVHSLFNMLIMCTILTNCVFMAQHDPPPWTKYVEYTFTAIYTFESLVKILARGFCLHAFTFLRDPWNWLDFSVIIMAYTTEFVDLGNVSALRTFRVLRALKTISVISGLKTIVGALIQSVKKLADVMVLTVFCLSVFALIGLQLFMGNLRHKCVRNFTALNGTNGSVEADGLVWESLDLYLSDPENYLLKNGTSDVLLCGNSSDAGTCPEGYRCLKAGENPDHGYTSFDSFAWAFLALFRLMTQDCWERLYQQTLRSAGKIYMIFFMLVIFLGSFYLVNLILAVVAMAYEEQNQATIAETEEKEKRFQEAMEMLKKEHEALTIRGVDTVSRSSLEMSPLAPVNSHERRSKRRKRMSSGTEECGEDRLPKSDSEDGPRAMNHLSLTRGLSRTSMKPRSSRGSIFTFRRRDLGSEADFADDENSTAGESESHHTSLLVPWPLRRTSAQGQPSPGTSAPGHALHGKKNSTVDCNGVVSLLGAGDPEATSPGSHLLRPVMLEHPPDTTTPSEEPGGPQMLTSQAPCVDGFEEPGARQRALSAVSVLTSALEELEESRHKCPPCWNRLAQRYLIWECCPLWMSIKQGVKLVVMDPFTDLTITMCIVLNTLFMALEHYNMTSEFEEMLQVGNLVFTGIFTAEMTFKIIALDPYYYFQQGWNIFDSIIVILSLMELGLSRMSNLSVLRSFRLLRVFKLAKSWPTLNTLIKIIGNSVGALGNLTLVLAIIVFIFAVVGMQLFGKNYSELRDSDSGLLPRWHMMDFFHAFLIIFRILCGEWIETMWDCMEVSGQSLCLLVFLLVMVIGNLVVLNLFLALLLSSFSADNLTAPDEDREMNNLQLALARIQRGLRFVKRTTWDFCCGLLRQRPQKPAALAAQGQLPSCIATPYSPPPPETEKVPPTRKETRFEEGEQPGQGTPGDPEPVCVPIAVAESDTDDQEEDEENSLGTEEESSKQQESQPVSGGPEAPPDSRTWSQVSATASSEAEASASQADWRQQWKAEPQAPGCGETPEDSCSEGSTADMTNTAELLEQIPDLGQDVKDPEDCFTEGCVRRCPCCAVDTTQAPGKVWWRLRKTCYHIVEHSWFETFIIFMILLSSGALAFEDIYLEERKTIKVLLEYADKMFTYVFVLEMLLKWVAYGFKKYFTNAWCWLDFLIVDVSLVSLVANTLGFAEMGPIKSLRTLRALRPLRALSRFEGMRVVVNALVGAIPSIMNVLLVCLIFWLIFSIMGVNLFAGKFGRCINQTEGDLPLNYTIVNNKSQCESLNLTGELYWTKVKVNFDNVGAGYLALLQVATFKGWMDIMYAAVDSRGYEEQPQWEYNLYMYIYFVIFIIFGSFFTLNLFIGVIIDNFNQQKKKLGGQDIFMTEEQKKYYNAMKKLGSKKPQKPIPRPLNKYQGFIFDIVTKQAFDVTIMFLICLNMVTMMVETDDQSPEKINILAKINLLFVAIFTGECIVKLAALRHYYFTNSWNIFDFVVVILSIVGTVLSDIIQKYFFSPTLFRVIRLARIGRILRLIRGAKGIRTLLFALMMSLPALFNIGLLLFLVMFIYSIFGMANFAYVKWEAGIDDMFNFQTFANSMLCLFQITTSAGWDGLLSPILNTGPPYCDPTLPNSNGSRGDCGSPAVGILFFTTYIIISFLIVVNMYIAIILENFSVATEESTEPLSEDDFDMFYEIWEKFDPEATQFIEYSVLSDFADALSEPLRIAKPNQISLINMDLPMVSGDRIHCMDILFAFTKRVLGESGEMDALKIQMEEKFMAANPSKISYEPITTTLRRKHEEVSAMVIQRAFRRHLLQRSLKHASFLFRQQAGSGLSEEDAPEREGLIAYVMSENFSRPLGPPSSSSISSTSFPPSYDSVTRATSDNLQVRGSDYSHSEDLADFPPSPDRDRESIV
Chain of Histamine H1 receptor (P35367 whole entry): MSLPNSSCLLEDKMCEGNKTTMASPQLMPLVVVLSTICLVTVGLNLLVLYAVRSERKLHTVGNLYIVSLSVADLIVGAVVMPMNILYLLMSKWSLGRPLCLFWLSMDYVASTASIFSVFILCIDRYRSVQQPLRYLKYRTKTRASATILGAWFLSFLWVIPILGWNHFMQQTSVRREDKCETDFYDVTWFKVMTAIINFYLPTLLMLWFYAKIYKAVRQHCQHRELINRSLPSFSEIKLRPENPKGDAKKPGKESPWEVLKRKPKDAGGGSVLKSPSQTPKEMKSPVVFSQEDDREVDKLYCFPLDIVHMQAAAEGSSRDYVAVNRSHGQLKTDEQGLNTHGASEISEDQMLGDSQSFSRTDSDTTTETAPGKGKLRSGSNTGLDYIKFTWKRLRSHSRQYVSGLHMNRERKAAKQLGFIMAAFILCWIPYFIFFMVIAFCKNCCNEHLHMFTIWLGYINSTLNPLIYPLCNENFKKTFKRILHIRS

## CN[C@@H](C)[C@H](O)c1ccccc1 [EPHEDRINE]
[1]
  AC50: > 10 µM
[2]
  AC50: > 30 µM
D(1A) dopamine receptor [3]
  AC50: > 10 µM

## NC(CO)C(=O)NNCc1ccc(O)c(O)c1O (centres undefined) [BENSERAZIDE]
D(1A) dopamine receptor [3]
  AC50: > 10 µM
Histamine H1 receptor
  AC50: > 30 µM

## Nc1nc2ccc(OC(F)(F)F)cc2s1 [RILUZOLE]
[4]
  AC50: > 30 µM
[5]
  AC50: > 50 µM
[6]
  AC50: > 30 µM
[7]
  AC50: > 30 µM
D(3) dopamine receptor
  AC50: > 30 µM
[8]
  AC50: > 30 µM
Histamine H3 receptor
  AC50: > 30 µM
[9]
  AC50: > 30 µM

## NC(=O)C[S+]([O-])C(c1ccccc1)c1ccccc1 (centres undefined) [MODAFINIL]
[10]
  AC50: > 10 µM
[11]
  AC50: > 10 µM
D(1B) dopamine receptor
  AC50: > 10 µM
D(1A) dopamine receptor [3]
  AC50: > 10 µM
[12]
  AC50: > 10 µM
[13]
  AC50: > 10 µM
Substance-K receptor
  AC50: > 10 µM

## O=C1CN=C(c2ccccc2)c2cc(Cl)ccc2N1CC(F)(F)F [HALAZEPAM]
[6]
  AC50: > 30 µM
[8]
  AC50: > 30 µM
Histamine H1 receptor
  AC50: > 30 µM
[9]
  AC50: > 30 µM

## C[C@H]1C[C@@H]2[C@H]([C@@H](O)C[C@@]3(C)[C@H]2CC[C@]3(O)C(=O)COC(=O)CCC(=O)O)[C@@]2(C)C=CC(=O)C=C12 [METHYLPREDNISOLONE HEMISUCCINATE]
[6]
  AC50: > 30 µM
[8]
  AC50: > 30 µM
Histamine H1 receptor
  AC50: > 30 µM
[9]
  AC50: > 30 µM

## O=C1NCCN1CCN1CCC(c2cn(-c3ccc(F)cc3)c3ccc(Cl)cc23)CC1 [SERTINDOLE]
[5]
  AC50: > 50 µM
[2]
  AC50: 21 µM

## CN1CCN(C(=O)OC2c3nccnc3C(=O)N2c2ccc(Cl)cn2)CC1 (centres undefined) [ZOPICLONE]
[6]
  AC50: > 30 µM
D(1A) dopamine receptor [3]
  AC50: > 10 µM
[9]
  AC50: > 30 µM

## C=C1CC[C@@]2(O)[C@H]3Cc4ccc(O)c5c4[C@@]2(CCN3CC2CC2)[C@H]1O5
[8]
  AC50: > 30 µM
Histamine H1 receptor
  AC50: > 30 µM

## CCCCCOC(=O)Nc1nc(=O)n([C@@H]2O[C@H](C)[C@@H](O)[C@H]2O)cc1F [CAPECITABINE]
[6]
  AC50: > 30 µM
[8]
  AC50: > 30 µM
[9]
  AC50: > 30 µM

## CCCOc1ccc(C(=O)OCCN(CC)CC)cc1N [PROPARACAINE]
[6]
  AC50: > 30 µM
[9]
  AC50: > 30 µM

## CCCCC(C)(O)C/C=C/[C@H]1[C@H](O)CC(=O)[C@@H]1CCCCCCC(=O)OC (some centres undefined) [MISOPROSTOL]
[8]
  AC50: > 30 µM
Histamine H1 receptor
  AC50: > 30 µM

## Cc1cc(-c2ccccc2)nnc1NCCN1CCOCC1 [MINAPRINE]
[1]
  AC50: > 10 µM
D(1A) dopamine receptor [3]
  AC50: > 10 µM

## CCCCCCC(C)(C)c1cc(O)c2c(c1)OC(C)(C)C1CCC(=O)CC21 (centres undefined) [NABILONE]
[6]
  AC50: > 30 µM
D(1A) dopamine receptor [14]
  AC50: > 30 µM
[8]
  AC50: > 30 µM
Histamine H1 receptor
  AC50: > 30 µM
[9]
  AC50: > 30 µM

## COc1ccc2cccc(CCNC(C)=O)c2c1 [AGOMELATINE]
[1]
  AC50: > 10 µM
D(1A) dopamine receptor [3]
  AC50: > 10 µM

## COC(=O)C1=C(C)NC(C)=C(C(=O)OC(C)C)C1c1cccc2nonc12 (centres undefined) [ISRADIPINE]
[2]
  AC50: 2.98 µM

## Cc1c(C(=O)Nc2ccc(N3C[C@@H](C)O[C@@H](C)C3)nc2)cccc1-c1ccc(OC(F)(F)F)cc1 [SONIDEGIB]
D(1A) dopamine receptor [3]
  AC50: > 10 µM

## [H]/N=C(/N)c1ccc(NCc2nc3cc(C(=O)N(CCC(=O)O)c4ccccn4)ccc3n2C)cc1 [DABIGATRAN]
[6]
  AC50: > 30 µM
[2]
  AC50: > 30 µM
[8]
  AC50: > 30 µM
[9]
  AC50: > 30 µM

## CN(C)C(=O)OC1N=C(c2ccccc2)c2cc(Cl)ccc2N(C)C1=O (centres undefined) [CAMAZEPAM]
[10]
  AC50: > 10 µM
[11]
  AC50: > 10 µM
D(1B) dopamine receptor
  AC50: > 10 µM
D(1A) dopamine receptor [3]
  AC50: > 10 µM
[12]
  AC50: > 10 µM
[13]
  AC50: > 10 µM
Substance-K receptor
  AC50: > 10 µM

## Nc1ncnc2c1ncn2[C@@H]1O[C@H](COP(=O)(O)O)[C@@H](O)[C@H]1O [ADENOSINE PHOSPHATE]
[8]
  AC50: > 30 µM
Histamine H1 receptor
  AC50: > 30 µM

## CC(C)(Oc1ccc(C2CC2(Cl)Cl)cc1)C(=O)O (centres undefined) [CIPROFIBRATE]
[6]
  AC50: > 30 µM
[9]
  AC50: > 30 µM

## O=C(O)CCCc1ccccc1 [PHENYLBUTANOIC ACID]
[10]
  AC50: > 10 µM
[12]
  AC50: > 10 µM
Substance-K receptor
  AC50: > 10 µM

## Cc1ccc(-c2nc3ccc(C)cn3c2CC(=O)N(C)C)cc1 [ZOLPIDEM]
[10]
  AC50: > 10 µM
[11]
  AC50: > 10 µM
D(1B) dopamine receptor
  AC50: > 10 µM
D(1A) dopamine receptor [3]
  AC50: > 10 µM
[12]
  AC50: > 10 µM
[13]
  AC50: > 10 µM
Substance-K receptor
  AC50: > 10 µM

## Cc1cccc(C)c1NC(=O)C1CCCCN1C (centres undefined) [MEPIVACAINE]
[6]
  AC50: > 30 µM
[9]
  AC50: > 30 µM

## BIVALIRUDIN
[4]
  AC50: > 30 µM
[7]
  AC50: > 30 µM
D(3) dopamine receptor
  AC50: > 30 µM
Histamine H3 receptor
  AC50: > 30 µM

## CC(Cc1ccccc1)NCCC(c1ccccc1)c1ccccc1 (centres undefined) [PRENYLAMINE]
[5]
  AC50: 47 µM
[2]
  AC50: 7.1 µM

## CCN1CCC[C@H]1CNC(=O)c1cc(S(N)(=O)=O)ccc1OC [LEVOSULPIRIDE]
D(1A) dopamine receptor [14]
  AC50: > 30 µM

## CCCCCN(C)CCC(O)(P(=O)(O)O)P(=O)(O)O [IBANDRONIC ACID]
D(1A) dopamine receptor [3]
  AC50: > 10 µM

## CCCCOc1cc(C(=O)NCCN(CC)CC)c2ccccc2n1 [DIBUCAINE]
[5]
  AC50: 22 µM
[2]
  AC50: 1.8 µM

## CC/C=C\C/C=C\C/C=C\CCCCCCCC(=O)O [LINOLENIC ACID]
[8]
  AC50: > 30 µM
Histamine H1 receptor
  AC50: > 30 µM

## COc1ccc(C(=O)N2CCN(c3ccc4c(c3)CCC(=O)N4)CC2)cc1OC [VESNARINONE]
[8]
  AC50: > 30 µM
Histamine H1 receptor
  AC50: > 30 µM

— ChEMBL document CHEMBL5291721, “A preclinical secondary pharmacology resource illuminates target-adverse drug reaction associations of marketed drugs” (Nat Commun, 2023)
